{
  "source": "patent US11427548B2",
  "about": "(Arvinas Operations, Inc., priority 2015, dated 2022)",
  "biological_target": "T1, Androgen Receptor (Homo sapiens, UniProt P10275)",
  "T1 construct": "endogenous in cells; host or cells: VCaP cells",
  "T1 sequence (P10275 1-920)": "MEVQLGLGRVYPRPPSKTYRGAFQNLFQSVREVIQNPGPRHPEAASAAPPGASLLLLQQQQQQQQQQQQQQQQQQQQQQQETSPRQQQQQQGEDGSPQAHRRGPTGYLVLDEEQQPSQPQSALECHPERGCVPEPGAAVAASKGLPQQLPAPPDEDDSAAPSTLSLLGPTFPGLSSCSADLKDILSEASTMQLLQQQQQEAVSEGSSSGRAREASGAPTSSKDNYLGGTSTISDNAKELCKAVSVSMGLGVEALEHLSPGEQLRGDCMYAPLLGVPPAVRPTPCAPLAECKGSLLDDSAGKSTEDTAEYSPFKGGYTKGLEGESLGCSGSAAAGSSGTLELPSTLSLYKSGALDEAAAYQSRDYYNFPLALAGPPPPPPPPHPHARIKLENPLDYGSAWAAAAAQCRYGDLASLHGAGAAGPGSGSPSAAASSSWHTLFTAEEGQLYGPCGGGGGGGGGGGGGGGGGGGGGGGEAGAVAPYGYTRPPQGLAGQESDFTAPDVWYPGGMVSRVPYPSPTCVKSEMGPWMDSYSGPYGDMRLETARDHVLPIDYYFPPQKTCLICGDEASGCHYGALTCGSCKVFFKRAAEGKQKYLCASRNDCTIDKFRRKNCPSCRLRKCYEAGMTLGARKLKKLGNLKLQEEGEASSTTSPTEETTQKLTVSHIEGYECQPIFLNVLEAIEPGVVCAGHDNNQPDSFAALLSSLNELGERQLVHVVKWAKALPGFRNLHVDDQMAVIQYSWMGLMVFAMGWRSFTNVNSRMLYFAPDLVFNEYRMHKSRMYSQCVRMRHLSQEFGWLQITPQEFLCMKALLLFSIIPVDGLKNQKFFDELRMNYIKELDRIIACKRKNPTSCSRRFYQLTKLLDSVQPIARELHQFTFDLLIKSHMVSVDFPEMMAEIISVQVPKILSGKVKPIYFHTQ",
  "assay": "Androgen Receptor ELISA assay (PathScan AR ELISA) in VCaP cells: AR degradation, Dmax and DC50",
  "format": "cell-based",
  "procedure,_shortened": "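VCaP cells, 30,000/well, grown ≥3 days in phenol red-free RPMI with 5% charcoal-stripped FBS; compound added in 0.1% DMSO with 0.1 nM R1881, 7 half-log doses, 24 h. Lysate AR quantified by PathScan sandwich ELISA, HRP/TMB read at 450 nm, giving DC50 and Dmax.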",
  "key": {"[1]": {"details": "VCaP, highest percentage of Androgen Receptor degradation observed, VCaP cells (Table 32); read-out: VCaP Dmax (%)"}, "[2]": {"details": "concentration that caused 50% Androgen Receptor degradation, VCaP cells (Table 32); read-out: VCaP DC50"}, "[3]": {"details": "VCaP cells; Table 35; read-out: VCaP DC50"}, "[4]": {"details": "VCaP, VCaP cells; Table 35; read-out: VCaP Dmax (%)"}},
  "note": "Where two headings read alike, the source gives them in different places.",
  "data": [
    {"molecule": "Cc1ncoc1-c1ccc(CNC(=O)[C@@H]2C[C@@H](O)CN2C(=O)[C@@H](NC(=O)CNCCCCCOc2ccc(C(=O)N[C@H]3C(C)(C)[C@H](Oc4ccc(C#N)c(Cl)c4)C3(C)C)cc2)C(C)(C)C)cc1", "note": "[Example 189, (2S,4R)-1-[(2S)-3,3-dimethyl-2-(2-{[5-(4-{[trans-3-(3-chloro-4-cyanophenoxy)-2,2,4,4-tetramethylcyclobutyl]carbamoyl}phenoxy)pentyl]amino}acetamido)butanoyl]-4-hydroxy-N-{[4-(4-methyl-1,3-oxazol-5-yl)phenyl]methyl)pyrrolidine-2-carboxamide]", "values": [
      {"measurement": "Dmax", "setting": "[1]", "value": "51 to 70", "unit": "%"},
      {"measurement": "DC50", "setting": "[2]", "value": "< 50", "unit": "nM"}
    ]},
    {"molecule": "Cc1ncsc1-c1ccc([C@H](C)NC(=O)[C@@H]2C[C@@H](O)CN2C(=O)[C@@H](NC(=O)OC(C)(C)C)[C@@H](C)OCCCN(C)CCc2ccc(C(=O)N[C@H]3C(C)(C)[C@H](Oc4ccc(C#N)c(Cl)c4)C3(C)C)cc2)cc1", "note": "[Example 729, tert-butyl ((2S,3R)-3-(3-((4-(((1r,3r)-3-(3-chloro-4-cyanophenoxy)-2,2,4,4-tetramethylcyclobutyl)carbamoyl)phenethyl)(meth-yl)amino)propoxy)-1-((2S,4R)-4-hydroxy-2-(((S)-1-(4-(4-methylthiazol-5-yl)phenyl)ethyl)carbam-oyl)pyrrolidin-1-yl)-1-oxobutan-2-yl)carbamate]", "values": [
      {"measurement": "DC50", "setting": "VCaP cells; Table 36; read-out: VCaP DC50", "value": "> 501", "unit": "nM"},
      {"measurement": "Dmax", "setting": "VCaP, VCaP cells; Table 36; read-out: VCaP Dmax (%)", "value": "< 25", "unit": "%"}
    ]},
    {"molecule": "CC(C)(C)[C@H](NC(=O)COCCCCOCCCCOc1ccc(N2C(=S)N(c3ccc(C#N)c(Cl)c3)C(=O)C2(C)C)cc1)C(=O)N1C[C@H](O)C[C@H]1C(=O)NCc1ccc(-c2cnco2)cc1", "note": "[Example 346]", "values": [
      {"measurement": "Dmax", "setting": "VCaP, read-out: VCaP Dmax (%)", "value": "51 to 70", "unit": "%"},
      {"measurement": "DC50", "setting": "read-out: VCaP DC50; VCaP cells; Table 34", "value": "< 50", "unit": "nM"}
    ]},
    {"molecule": "Cc1ncsc1-c1ccc([C@H](C)NC(=O)[C@@H]2C[C@@H](O)CN2C(=O)[C@@H](NC(=O)CNCCNc2ccc(-c3ccc(C(=O)N[C@H]4C(C)(C)[C@H](Oc5ccc(C#N)c(Cl)c5)C4(C)C)cc3)cn2)C(C)(C)C)cc1", "note": "[Example 483]", "values": [
      {"measurement": "DC50", "setting": "[3]", "value": "< 50", "unit": "nM"},
      {"measurement": "Dmax", "setting": "[4]", "value": "> 71", "unit": "%"}
    ]},
    {"molecule": "Cc1ncsc1-c1ccc(CNC(=O)[C@@H]2C[C@@H](O)CN2C(=O)[C@@H](NC(=O)COC(C)CCCOc2ccc(-c3ccc(N4C(=S)N(c5ccc(C#N)c(C(F)(F)F)c5)C(=O)C4(C)C)cc3)cc2)C(C)(C)C)cc1", "note": "(stereo in doubt) [Example 148, (2S,4R)-1-[(2S)-2-(2-{[(2R)-5-[4-(4-{3-[4-cyano-3-(trifluoromethyl)phenyl]-5,5-dimethyl-4-oxo-2-sulfanylideneimidazolidin-1-yl}phenyl)phenoxy]pentan-2-yl]oxy}acetamido)-3,3-dimethylbutanoyl]-4-hydroxy-N-{[4-(4-methyl-1,3-thiazol-5-yl)phenyl]methyl}pyrrolidine-2-carboxamide]", "values": [
      {"measurement": "Dmax", "setting": "VCaP, read-out: VCaP Dmax (%)", "value": "> 71", "unit": "%"},
      {"measurement": "DC50", "setting": "read-out: VCaP DC50; concentration that caused 50% Androgen Receptor degradation, VCaP cells (Table 32)", "value": "< 50", "unit": "nM"}
    ]},
    {"molecule": "Cc1ncsc1-c1ccc([C@H](C)NC(=O)[C@@H]2C[C@@H](O)CN2C(=O)[C@@H](NC(=O)COC[C@H](O)CCOc2ccc(-c3ccc(N4C(=S)N(c5ccc(C#N)c(C(F)(F)F)c5)C(=O)C4(C)C)cc3)cc2)C(C)(C)C)cc1", "note": "[Example 576]", "values": [
      {"measurement": "Dmax", "setting": "VCaP, read-out: VCaP Dmax (%)", "value": "> 71", "unit": "%"},
      {"measurement": "DC50", "setting": "read-out: VCaP DC50; VCaP cells; Table 35", "value": "< 50", "unit": "nM"}
    ]},
    {"molecule": "Cc1ncsc1-c1ccc(CNC(=O)[C@@H]2C[C@@H](O)CN2C(=O)[C@@H](NC(=O)COCCNc2ccc(-c3ccc(C(=O)N[C@H]4C(C)(C)[C@H](Oc5ccc(C#N)c(Cl)c5)C4(C)C)cc3)cn2)C(C)(C)C)nc1", "note": "[Example 446]", "values": [
      {"measurement": "DC50", "setting": "[3]", "value": "> 501", "unit": "nM"},
      {"measurement": "Dmax", "setting": "[4]", "value": "26 to 50", "unit": "%"}
    ]},
    {"molecule": "Cc1ncsc1-c1ccc(CNC(=O)[C@@H]2C[C@@H](O)CN2C(=O)[C@@H](NC(=O)COCCCCNc2ccc(C(=O)N[C@H]3C(C)(C)[C@H](Oc4ccc(C#N)c(Cl)c4)C3(C)C)cc2)C(C)(C)C)cc1", "note": "[Example 175, (2S,4R)-1-[(2S)-3,3-dimethyl-2-(2-{4-[(4-{[trans-3-(3-chloro-4-cyanophenoxy)-2,2,4,4-tetramethylcyclobutyl]carbamoyl}phenyl)amino]butoxy}acetamido)butanoyl]-4-hydroxy-N-{[4-(4-methyl-1,3-thiazol-5-yl)phenyl]methyl}pyrrolidine-2-carboxamide]", "values": [
      {"measurement": "Dmax", "setting": "[1]", "value": "51 to 70", "unit": "%"},
      {"measurement": "DC50", "setting": "[2]", "value": "< 50", "unit": "nM"}
    ]}
  ]
}
